Measurements: PMC7230990, “Deproteinization as a Rapid Method of Saliva Purification for the Determination of Carbamazepine and Carbamazepine-10,11 Epoxide” (Journal of Clinical Medicine, 2020)
“And” between values parts separate entries of the source, which are not always exact repeats. Equal values may be shown once.

Key:
[1] = Carbamazepine and carbamazepine-10,11 epoxide concentrations in saliva of patients treated with carbamazepine (UHPLC-DAD after deproteinization); type: in vivo, human
Method: The chromatographic analysis was performed with a Nexer XR UHPLC (Ultra High Performance Liquid Chromatography) liquid chromatograph (Schimadzu, Kyoto, Japan), equipped with a SPD-M30A UV-Vis detector with a diode array and a highly sensitive measuring cell SPD-M30A (85 mm), CBM-20 Alite control system, LC-30AD pump, SIL-30AC autosampler, and CTO-20AC thermostat (Shimadzu, Kyoto, Japan). The compounds were separated using a Luna Omega 1.6 µm Polar C18 (LC Column 50 × 2.1 mm ID) with pre-columns (UHPLC Fully Porous Polar C18, 2.1 mm ID). The compounds were eluted from the column at 35 °C with a mobile phase consisting of water with added formic acid and triethylamine (TEA) (solvent A, pH 4.2) and acetonitrile (solvent B) at a flow of 1 mL/min.
The saliva samples were thawed, centrifuged, and then 200 μL of test material was collected and placed in plastic tubes. A 1% formic acid solution in acetonitrile (600 µL) was added to each of them, mixed with a vortex, shaken (laboratory shaker 358 S, Elpin, Poland) for about 10 min, and centrifuged for 5 min at 8000 rpm. The supernatant was transferred to glass tubes and evaporated. The dry residue was dissolved in 100 μL of an acetonitrile/water mixture with formic acid (1:10), and 10 μL was injected into the chromatographic column.
The usefulness of the method was determined by examining the saliva samples of 20 patients treated with carbamazepine preparations. They were collected from patients of the Nervous and Mentally Ill Hospital in Starogard Gdański (Poland). The study protocol was approved by the ethical committee of the Medical University of Gdansk, Poland (NKBBN/139/2016). Saliva was taken using Salivettes about 2 h after the administration of carbamazepine. The Salivette was placed in a test tube and centrifuged, and the obtained filtrate was frozen at −21 °C and stored until analysis. To perform the analyses, the samples were thawed, centrifuged, and 200 μL of liquid taken. Then, 50 μL of IS solution (10 μg/mL) was added and the procedure described in Section 2.4 was followed.

[2] = Stability of extracts kept in the autosampler at 15 °C for 72 h; type: physicochemical; conditions: extracts in autosampler at 15 °C for 72 h
Method: The stability of the analytes was also determined during their storage in an autosampler at 15 °C for 72 h. For this purpose, five samples of each concentration were extracted and chromatographed. After 72 h, the samples were then chromatographed again alongside a freshly prepared calibration curve.
(§1) The compounds whose concentration decreased by less than 15% under the given storage conditions were considered to be stable.

[3] = Stability of analytes in spiked saliva, freeze–thaw test at −21 °C; type: in vitro ADME, human; conditions: freeze–thaw cycles at −21 °C
Method: The stability of the analytes was tested for three concentrations (low QC, medium QC, and high QC). The stability of the analytes was determined both in the matrix during storage at 8 °C and in a freeze–thaw test, during which spiked saliva samples were stored at −21 °C. For each concentration of carbamazepine and metabolite, three 800 μL saliva samples were prepared in plastic tubes, spiked with an appropriate volume of analytes, and mixed. Then, 200 μL of saliva was taken from each sample, IS added, extracted, and chromatographed according to the procedures described in Section 2.4 and Section 2.5. The remainder of the sample was placed back in the refrigerator or frozen and analyzed in the following days.
as §1

[4] = set-up: method as in PMID 29403934, PMID 23288091, PMID 29957667; conditions: cited from earlier work
[5] = Stability of analytes in spiked saliva stored in a fridge at 8 °C; type: in vitro ADME, human; conditions: for stability under the tested conditions: saliva at 8 °C, freeze–thaw at −21 °C, autosampler 15 °C 72 h, 30, 2000, 3750 ng/mL, stable = decrease less than 15%; for Difference (%): spiked saliva stored in a fridge at 8 °C
Method: The stability of the analytes was tested for three concentrations (low QC, medium QC, and high QC). The stability of the analytes was determined both in the matrix during storage at 8 °C and in a freeze–thaw test, during which spiked saliva samples were stored at −21 °C. […] The remainder of the sample was placed back in the refrigerator or frozen and analyzed in the following days. The compounds whose concentration decreased by less than 15% under the given storage conditions were considered to be stable.

| Structure (SMILES) | mean concentration in saliva ([1]; female patients) [ng/mL] | mean concentration in saliva ([1]; male patients) [ng/mL] | Carbamazepine Concentration ([1]; saliva of individual patients, about 2 h after administration of carbamazepine, dose 400-1800 mg/day) | Difference (%) ([2]; 30 ng/mL) | Difference (%) ([2]; 2000 ng/mL) | Difference (%) ([2]; 3750 ng/mL) | Difference (%) ([3]; 30 ng/mL) | Difference (%) ([3]; 2000 ng/mL) | Difference (%) ([3]; 3750 ng/mL) | half-life ([4]; after a single administration) [h] | excreted in the urine [4] [%] | stability under the tested conditions [5] | Difference (%) ([5]; 30 ng/mL) | Difference (%) ([5]; 2000 ng/mL) | Difference (%) ([5]; 3750 ng/mL) | mean concentration in saliva ([1]; female, human, in vivo) [ng/mL] | determined concentrations in patient saliva, range ([1]; human, in vivo) [ng/mL] | mean concentration in saliva ([1]; male, human, in vivo) [ng/mL] | highest concentration reduction ([5]; 30 ng/mL in saliva samples stored at 8 °C) [%] |
| --- | --- | --- | --- | --- | --- | --- | --- | --- | --- | --- | --- | --- | --- | --- | --- | --- | --- | --- | --- |
| NC(=O)N1c2ccccc2C=Cc2ccccc21 [Carbamazepine, carbamazepine] | 967 | 1882 | 344.7 ng/mL and 690.7 ng/mL and 1285.1 ng/mL and 464.0 ng/mL and 282.2 ng/mL and 472.9 ng/mL and 2456.8 ng/mL and 1668.1 ng/mL and 613.5 ng/mL and 784.3 ng/mL and 1119.9 ng/mL and 607.6 ng/mL and 1198.2 ng/mL and 1192.3 ng/mL and 1817.8 ng/mL and 4891.0 ng/mL and 4839.8 ng/mL and 1165.7 ng/mL and 262.2 ng/mL and 2334.2 ng/mL | −0.30 | −1.12 | −1.72 | −2.25 | −2.16 | −1.44 | 36 | 72 | stable | −3.91 | −2.53 | −1.93 |  |  |  |  |
| NC(=O)N1c2ccccc2C2OC2c2ccccc21 (centres unmarked) [Carbamazepine-10,11 epoxide, carbamazepine-10,11 epoxide] |  |  |  | −3.64 | −2.3 | 0.38 | −2.45 | −1.92 | −0.48 |  |  | stable | −6.23 | −3.56 | −2.75 | 249 | 120 to 664 | 299 | 6 |
